# According to ChEMBL document CHEMBL1152560, “Substituted 2-arylbenzothiazoles as kinase inhibitors: hit-to-lead optimization” (Bioorg Med Chem, 2009):
# Assays:
# [1] = molecular target: Serine/threonine-protein kinase pim-2 (Homo sapiens) (UniProt Q9P1W9); assay: Residual activity of PIM2 at 1 uM by microplate scintillation counting
# [2] = molecular target: Serine/threonine-protein kinase SIK2 (Homo sapiens) (UniProt Q9H0K1); assay: Residual activity of SNF1LK2 at 1 uM by microplate scintillation counting
# [3] = molecular target: Interferon-induced, double-stranded RNA-activated protein kinase (Homo sapiens) (UniProt P19525); assay: Residual activity of EIF2AK2 at 10 uM by microplate scintillation counting
# Interferon-induced, double-stranded RNA-activated protein kinase (Homo sapiens), sequence (P19525 whole entry): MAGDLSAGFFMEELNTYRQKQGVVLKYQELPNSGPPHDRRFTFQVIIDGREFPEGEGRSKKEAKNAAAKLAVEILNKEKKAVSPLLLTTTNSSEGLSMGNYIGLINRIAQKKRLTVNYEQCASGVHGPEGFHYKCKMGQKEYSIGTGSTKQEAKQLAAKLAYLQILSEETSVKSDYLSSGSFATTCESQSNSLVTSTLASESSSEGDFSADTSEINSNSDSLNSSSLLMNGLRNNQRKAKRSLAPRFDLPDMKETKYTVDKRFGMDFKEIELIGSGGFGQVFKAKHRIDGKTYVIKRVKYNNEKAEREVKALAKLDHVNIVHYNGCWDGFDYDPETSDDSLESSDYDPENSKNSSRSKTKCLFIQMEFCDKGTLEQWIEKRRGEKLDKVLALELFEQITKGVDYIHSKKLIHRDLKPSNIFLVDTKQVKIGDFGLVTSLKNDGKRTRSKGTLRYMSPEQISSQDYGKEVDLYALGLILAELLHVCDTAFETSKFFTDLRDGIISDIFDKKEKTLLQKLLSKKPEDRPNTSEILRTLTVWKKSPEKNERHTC
# [4] = molecular target: Cyclin-dependent kinase 5/CDK5 activator 1 (Homo sapiens) (UniProt Q00535+Q15078); assay: Residual activity of CDK5/p35NCK at 0.1 uM by microplate scintillation counting; format: protein-complex assay
# [5] = molecular target: Serine/threonine-protein kinase PAK 1 (Homo sapiens) (UniProt Q13153); assay: Residual activity of PAK1 at 1 uM by microplate scintillation counting
# [6] = molecular target: Tyrosine-protein kinase HCK (Homo sapiens) (UniProt P08631); assay: Residual activity of HCK at 10 uM by microplate scintillation counting
# Tyrosine-protein kinase HCK (Homo sapiens), sequence (P08631 2-526 limits assumed): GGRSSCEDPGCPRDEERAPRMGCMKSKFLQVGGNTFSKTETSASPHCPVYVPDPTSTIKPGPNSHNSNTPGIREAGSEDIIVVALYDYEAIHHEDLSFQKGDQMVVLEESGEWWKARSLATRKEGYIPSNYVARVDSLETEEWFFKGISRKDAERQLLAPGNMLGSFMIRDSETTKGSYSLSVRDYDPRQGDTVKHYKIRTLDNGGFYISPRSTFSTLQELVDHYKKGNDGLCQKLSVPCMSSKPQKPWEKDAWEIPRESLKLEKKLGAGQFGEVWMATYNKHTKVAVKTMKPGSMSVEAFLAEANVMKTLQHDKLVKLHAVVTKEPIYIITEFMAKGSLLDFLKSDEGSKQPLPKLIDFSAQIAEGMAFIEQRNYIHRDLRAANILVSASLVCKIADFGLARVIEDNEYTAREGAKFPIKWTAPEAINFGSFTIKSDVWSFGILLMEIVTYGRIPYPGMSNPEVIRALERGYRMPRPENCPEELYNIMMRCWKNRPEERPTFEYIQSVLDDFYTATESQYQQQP
# [7] = molecular target: T1, Ephrin type-B receptor 1 (Homo sapiens) (UniProt P54762); assay: Residual activity of EPHB1 at 10 uM by microplate scintillation counting
# T1 sequence (whole entry): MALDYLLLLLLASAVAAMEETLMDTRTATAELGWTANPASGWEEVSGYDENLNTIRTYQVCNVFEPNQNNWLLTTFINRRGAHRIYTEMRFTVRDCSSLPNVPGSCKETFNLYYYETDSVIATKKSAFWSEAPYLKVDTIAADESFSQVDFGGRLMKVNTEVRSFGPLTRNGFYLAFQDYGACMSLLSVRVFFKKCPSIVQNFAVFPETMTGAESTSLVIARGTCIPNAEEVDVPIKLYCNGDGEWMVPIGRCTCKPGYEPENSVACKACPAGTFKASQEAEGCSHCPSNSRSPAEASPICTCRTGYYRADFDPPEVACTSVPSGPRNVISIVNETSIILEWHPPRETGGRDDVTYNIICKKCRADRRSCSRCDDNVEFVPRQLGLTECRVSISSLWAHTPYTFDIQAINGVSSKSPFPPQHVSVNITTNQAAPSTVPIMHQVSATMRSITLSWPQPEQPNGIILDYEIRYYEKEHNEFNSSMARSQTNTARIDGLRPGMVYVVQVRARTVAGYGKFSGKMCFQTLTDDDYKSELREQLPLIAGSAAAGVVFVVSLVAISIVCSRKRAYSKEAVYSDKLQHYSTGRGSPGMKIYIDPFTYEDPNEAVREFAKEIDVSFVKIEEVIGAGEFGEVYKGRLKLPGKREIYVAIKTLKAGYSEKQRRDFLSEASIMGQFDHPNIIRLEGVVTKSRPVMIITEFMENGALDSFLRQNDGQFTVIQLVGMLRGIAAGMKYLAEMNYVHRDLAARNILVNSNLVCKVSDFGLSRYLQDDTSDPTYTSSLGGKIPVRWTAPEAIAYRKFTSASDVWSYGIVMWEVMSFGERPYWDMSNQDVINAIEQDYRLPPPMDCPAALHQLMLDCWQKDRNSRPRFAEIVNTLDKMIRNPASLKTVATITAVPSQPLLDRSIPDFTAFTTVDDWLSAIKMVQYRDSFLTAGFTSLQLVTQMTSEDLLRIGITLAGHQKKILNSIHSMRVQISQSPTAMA
# [8] = molecular target: Serine/threonine-protein kinase 16 (Homo sapiens) (UniProt O75716); assay: Residual activity of TSF1 at 1 uM by microplate scintillation counting
# Serine/threonine-protein kinase 16 (Homo sapiens), sequence (O75716 whole entry): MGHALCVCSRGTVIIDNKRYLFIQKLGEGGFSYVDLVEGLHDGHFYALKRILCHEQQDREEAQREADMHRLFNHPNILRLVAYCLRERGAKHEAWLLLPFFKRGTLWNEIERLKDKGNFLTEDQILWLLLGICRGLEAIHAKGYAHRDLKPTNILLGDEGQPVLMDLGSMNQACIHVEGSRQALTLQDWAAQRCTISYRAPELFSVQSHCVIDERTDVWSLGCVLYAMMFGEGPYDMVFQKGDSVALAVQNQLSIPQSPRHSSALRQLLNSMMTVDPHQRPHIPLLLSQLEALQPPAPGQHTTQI
# [9] = molecular target: Mitogen-activated protein kinase 9 (Homo sapiens) (UniProt P45984); assay: Residual activity of JNK2 at 0.1 uM by microplate scintillation counting
# [10] = molecular target: T2, Serine/threonine-protein kinase Chk1 (Homo sapiens) (UniProt O14757); assay: Residual activity of CHK1 at 10 uM by microplate scintillation counting
# T2 sequence (whole entry): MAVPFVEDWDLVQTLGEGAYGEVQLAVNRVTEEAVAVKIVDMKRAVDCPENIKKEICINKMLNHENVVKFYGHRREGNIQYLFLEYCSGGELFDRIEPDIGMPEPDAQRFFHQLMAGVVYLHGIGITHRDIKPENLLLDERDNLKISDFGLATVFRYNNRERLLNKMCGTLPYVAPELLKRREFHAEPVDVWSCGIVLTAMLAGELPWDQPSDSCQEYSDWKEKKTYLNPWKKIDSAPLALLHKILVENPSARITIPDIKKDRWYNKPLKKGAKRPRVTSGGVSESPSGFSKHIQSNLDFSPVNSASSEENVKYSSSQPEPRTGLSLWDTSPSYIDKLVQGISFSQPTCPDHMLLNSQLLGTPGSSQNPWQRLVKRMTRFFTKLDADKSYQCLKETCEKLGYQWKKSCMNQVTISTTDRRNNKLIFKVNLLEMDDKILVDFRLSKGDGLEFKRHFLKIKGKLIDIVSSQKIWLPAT
# [11] = molecular target: Proto-oncogene tyrosine-protein kinase receptor Ret (Homo sapiens) (UniProt P07949); assay: Residual activity of RET at 0.1 uM by microplate scintillation counting
# [12] = molecular target: T3, Aurora kinase C (Homo sapiens) (UniProt Q9UQB9); assay: Residual activity of Aurora-C at 10 uM by microplate scintillation counting
# T3 sequence (whole entry): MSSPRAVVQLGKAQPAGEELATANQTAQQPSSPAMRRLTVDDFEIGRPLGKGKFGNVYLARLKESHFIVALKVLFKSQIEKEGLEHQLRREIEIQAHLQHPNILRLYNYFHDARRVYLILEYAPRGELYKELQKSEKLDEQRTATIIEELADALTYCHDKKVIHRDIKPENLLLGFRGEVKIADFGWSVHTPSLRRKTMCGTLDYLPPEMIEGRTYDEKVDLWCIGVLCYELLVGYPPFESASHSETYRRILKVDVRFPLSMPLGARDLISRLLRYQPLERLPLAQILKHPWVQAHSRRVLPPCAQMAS
# [13] = molecular target: Serine/threonine-protein kinase PAK 6 (Homo sapiens) (UniProt Q9NQU5); assay: Residual activity of PAK6 at 0.1 uM by microplate scintillation counting
# [14] = molecular target: Serine/threonine-protein kinase WNK2 (Homo sapiens) (UniProt Q9Y3S1); assay: Residual activity of WNK2 at 1 uM by microplate scintillation counting
# Serine/threonine-protein kinase WNK2 (Homo sapiens), sequence (Q9Y3S1 whole entry): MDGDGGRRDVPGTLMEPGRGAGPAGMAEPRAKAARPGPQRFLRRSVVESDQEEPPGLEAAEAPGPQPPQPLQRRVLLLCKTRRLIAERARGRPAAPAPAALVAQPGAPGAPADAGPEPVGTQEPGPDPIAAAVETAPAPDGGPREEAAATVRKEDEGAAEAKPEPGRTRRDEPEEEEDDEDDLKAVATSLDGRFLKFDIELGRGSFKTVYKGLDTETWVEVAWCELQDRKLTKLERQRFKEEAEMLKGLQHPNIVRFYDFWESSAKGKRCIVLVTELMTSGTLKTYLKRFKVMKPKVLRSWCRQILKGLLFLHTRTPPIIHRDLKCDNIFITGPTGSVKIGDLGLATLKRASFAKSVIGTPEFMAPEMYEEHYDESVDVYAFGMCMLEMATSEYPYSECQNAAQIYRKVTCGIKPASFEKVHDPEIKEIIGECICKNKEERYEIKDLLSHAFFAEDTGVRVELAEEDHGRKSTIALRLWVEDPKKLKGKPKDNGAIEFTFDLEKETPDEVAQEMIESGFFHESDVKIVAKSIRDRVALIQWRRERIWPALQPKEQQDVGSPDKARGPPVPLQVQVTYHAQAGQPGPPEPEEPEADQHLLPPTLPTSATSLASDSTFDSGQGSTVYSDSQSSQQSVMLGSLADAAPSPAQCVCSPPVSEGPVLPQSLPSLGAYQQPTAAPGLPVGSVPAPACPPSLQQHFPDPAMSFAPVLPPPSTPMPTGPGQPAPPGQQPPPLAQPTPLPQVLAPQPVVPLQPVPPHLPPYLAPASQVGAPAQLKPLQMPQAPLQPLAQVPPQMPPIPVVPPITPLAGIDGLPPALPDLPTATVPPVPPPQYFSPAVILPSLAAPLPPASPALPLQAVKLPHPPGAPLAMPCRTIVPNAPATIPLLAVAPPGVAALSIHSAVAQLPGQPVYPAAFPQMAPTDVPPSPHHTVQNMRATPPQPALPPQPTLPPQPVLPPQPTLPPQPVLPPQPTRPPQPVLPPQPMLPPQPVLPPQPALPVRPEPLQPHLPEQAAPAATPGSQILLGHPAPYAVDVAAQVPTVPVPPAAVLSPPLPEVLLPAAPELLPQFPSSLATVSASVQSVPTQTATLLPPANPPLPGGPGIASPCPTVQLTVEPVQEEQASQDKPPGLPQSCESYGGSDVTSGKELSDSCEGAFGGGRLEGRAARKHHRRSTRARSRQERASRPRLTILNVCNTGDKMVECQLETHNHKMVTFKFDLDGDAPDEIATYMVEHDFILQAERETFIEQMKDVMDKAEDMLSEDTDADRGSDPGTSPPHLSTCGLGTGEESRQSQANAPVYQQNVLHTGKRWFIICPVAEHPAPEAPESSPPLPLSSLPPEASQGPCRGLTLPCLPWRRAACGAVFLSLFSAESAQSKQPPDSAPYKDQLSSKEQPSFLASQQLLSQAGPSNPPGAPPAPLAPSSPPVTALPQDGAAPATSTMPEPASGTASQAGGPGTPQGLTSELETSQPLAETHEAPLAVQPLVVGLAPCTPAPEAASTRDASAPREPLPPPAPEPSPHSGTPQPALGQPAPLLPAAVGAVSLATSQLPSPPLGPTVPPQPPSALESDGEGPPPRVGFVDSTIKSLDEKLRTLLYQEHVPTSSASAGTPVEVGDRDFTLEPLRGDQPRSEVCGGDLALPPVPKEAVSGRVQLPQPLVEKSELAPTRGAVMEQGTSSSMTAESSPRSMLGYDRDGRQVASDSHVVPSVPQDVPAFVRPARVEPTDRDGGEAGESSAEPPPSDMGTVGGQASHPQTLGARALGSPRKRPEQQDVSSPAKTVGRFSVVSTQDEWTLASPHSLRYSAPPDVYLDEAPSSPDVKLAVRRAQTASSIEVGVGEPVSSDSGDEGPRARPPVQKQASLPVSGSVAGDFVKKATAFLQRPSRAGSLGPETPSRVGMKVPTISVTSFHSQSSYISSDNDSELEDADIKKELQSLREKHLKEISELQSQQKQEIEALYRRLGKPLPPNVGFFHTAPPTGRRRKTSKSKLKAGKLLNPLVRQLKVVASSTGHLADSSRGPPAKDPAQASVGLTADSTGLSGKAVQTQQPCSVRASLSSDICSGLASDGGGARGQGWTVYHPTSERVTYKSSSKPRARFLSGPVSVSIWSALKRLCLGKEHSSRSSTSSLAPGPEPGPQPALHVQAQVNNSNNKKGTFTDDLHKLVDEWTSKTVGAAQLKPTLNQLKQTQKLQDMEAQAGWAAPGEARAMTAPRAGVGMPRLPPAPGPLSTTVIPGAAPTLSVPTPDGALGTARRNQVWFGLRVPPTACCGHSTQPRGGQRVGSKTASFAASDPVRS
# [15] = molecular target: Dual specificity protein kinase CLK1 (Homo sapiens) (UniProt P49759); assay: Residual activity of CLK1 at 10 uM by microplate scintillation counting
# [16] = molecular target: Receptor-type tyrosine-protein kinase FLT3 (Homo sapiens) (UniProt P36888); assay: Residual activity of wild type FLT3 at 10 uM by microplate scintillation counting
# Receptor-type tyrosine-protein kinase FLT3 (Homo sapiens), sequence (P36888 whole entry): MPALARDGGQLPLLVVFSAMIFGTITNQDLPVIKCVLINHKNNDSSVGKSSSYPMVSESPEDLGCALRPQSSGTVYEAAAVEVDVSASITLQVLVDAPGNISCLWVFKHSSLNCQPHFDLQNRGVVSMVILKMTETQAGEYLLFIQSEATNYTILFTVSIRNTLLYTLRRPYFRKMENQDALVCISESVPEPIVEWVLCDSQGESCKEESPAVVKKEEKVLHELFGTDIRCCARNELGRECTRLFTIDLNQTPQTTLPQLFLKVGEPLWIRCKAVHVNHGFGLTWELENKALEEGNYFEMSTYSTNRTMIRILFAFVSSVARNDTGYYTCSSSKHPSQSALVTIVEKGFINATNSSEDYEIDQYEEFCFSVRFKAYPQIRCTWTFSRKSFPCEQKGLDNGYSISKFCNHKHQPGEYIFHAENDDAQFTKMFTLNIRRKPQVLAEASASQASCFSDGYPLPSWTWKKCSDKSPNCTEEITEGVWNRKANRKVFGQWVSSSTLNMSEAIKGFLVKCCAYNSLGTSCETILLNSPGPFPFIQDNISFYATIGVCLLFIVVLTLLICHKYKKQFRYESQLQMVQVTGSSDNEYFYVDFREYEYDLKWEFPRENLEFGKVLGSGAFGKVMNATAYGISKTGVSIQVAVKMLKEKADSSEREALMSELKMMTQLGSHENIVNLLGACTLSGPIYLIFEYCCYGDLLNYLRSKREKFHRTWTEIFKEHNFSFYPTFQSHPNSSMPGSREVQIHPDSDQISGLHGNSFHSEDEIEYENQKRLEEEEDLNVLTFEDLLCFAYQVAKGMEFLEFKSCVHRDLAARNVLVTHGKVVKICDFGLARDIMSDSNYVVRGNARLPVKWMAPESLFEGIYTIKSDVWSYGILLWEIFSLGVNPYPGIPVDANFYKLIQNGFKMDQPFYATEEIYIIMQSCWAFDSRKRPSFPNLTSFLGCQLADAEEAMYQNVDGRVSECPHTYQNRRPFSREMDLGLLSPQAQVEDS
# Serine/threonine-protein kinase pim-2 (Homo sapiens), sequence (Q9P1W9 whole entry, looked up): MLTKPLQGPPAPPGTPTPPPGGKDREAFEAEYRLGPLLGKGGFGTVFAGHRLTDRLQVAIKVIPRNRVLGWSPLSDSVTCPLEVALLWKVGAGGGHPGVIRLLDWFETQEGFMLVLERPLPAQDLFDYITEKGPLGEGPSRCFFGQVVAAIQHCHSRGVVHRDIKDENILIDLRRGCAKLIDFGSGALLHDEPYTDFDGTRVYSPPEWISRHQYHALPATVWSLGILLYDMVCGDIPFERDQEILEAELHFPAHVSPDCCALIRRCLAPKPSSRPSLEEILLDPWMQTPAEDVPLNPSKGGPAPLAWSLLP
SMILES,residual activity [1] [%],residual activity [2] [%],residual activity [3] [%],residual activity [4] [%],residual activity [5] [%],residual activity [6] [%],residual activity [7] [%],residual activity [8] [%],residual activity [9] [%],residual activity [10] [%],residual activity [11] [%],residual activity [12] [%],residual activity [13] [%],residual activity [14] [%],residual activity [15] [%],residual activity [16] [%]
COc1cc2c(Oc3ccc(-c4nc5ccccc5s4)cc3)ncnc2cc1OCCCN1CCN(C)CC1,63,88,21,93,104,155,429,90,108,131,92,0,69,25,83,13
COc1cc2c(Oc3ccc(-c4nc5ccccc5s4)cc3)ncnc2cc1OCCCN1CCCC1,89,78,27,94,101,187,223,87,89,101,97,1,99,34,97,42
COc1cc2c(Oc3ccc(-c4nc5ccccc5s4)cc3F)ncnc2cc1OCCCN1CCN(C)CC1,77,85,28,83,91,78,124,96,103,142,101,2,98,53,61,6
